Assay: pH of the solution
Type: physicochemical

[K+].[OH-] [potassium hydroxide]
pH of strong basic solutions used as high pH controls: 14

[Na+].[OH-] [sodium hydroxide]
pH of strong basic solutions used as high pH controls: 14
